Assay results reported in patent publication US20180110754A1, “CENICRIVIROC FOR THE TREATMENT OF FIBROSIS” (Tobira Therapeutics, Inc., priority 2015, published 2018).
Read-outs that look alike come from different tables or passages of the source.

Legend:
Mouse toxicity studies = type: in vivo; conditions: doses up to 2000 mg/kg/day, no surgical procedures
[1] = Study 201: safety and tolerability; type: in vivo, human
Description: Participants were required to be antiretroviral treatment-experienced, CCR5 antagonist-naive, with HIV-1 RNA levels of at least 5000 copies/mL and CD4+ cell counts of at least 250 cells/mm^3 was performed.

HIV-1 = assay: Study 201: pharmacokinetic/pharmacodynamic Emax model; type: in vivo, human; conditions: for Emax: read-out: Percent of the maximum inhibitory effect at average Css (Emax model)
Source text: Drug response was characterized using the following maximum effect (Emax) model:
where E is effect, E0 is the baseline effect (fixed to 0), Imax is the maximum inhibition, C denotes the PK variable (AUC0-24, Cmax, or steady-state concentration [Css]), IC50 is the value of the PK variable which corresponds to 50% of the maximum inhibition and γ is the shape parameter which describes the degree of sigmoidicity.

[2] = Chronic (3- and 9-month) monkey toxicity studies; type: in vivo; conditions: 1000 mg/kg/day
[3] = Phase 1 studies in healthy volunteer subjects; type: in vivo, human; conditions: single doses up to 800 mg, multiple daily doses up to 200 mg for 10 days
Source text: The frequency and magnitude of transaminase elevations observed across these studies was consistent with the pattern described for Phase 1 studies in scientific literature. […] In both studies and at all doses CVC presented a favorable adverse event profile. […] No clinically relevant changes in ECG parameters or changes for any vital sign parameters were observed during the 48-week treatment period. No apparent dose or exposure relationship for adverse events, laboratory abnormalities (including CPK, ALT, AST and bilirubin elevations) or dose-limiting toxicities were observed.

[4] = system: thioglycollate-induced peritonitis (monocyte/macrophage and leukocyte recruitment); assay: Mouse thioglycollate-induced peritonitis model: peritoneal lavage cell counts, body weight; type: in vivo
Description: Summary: The mouse thioglycollate induced peritonitis model is a commonly used preclinical model to assess the recruitment of […] cells and to assess the activation of macrophages.
Dexamethasone was used as a positive control in this experiment as it is a corticosteroid known to reduce inflammation in a variety of animal models. Murine inflammation models indicate that the effective dose range for dexamethasone, when administered orally, is 0.3 to 3 mg/kg QD. On this basis, an intermediate dose of 1 mg/kg was chosen for this particular study.
The lavage was repeated with a second injection of 2.5 mL via the initial puncture site and the samples were pooled for each animal.
The lavage fluid was placed on wet ice pending processing for total and differential cell counts using the Advia analyzer. Following the lavage collection, a blood sample (0.7 mL) was collected from each mouse by intracardiac puncture or from the vena cava (collection time was recorded). 0.5 mL of blood was placed in an EDTA tube, transferred to clinical pathology and analyzed for differential cell counts using the Advia analyzer. 0.2 mL of blood was placed in a K2EDTA tube and processed to plasma. The plasma was collected by centrifugation (3000 rpm for 10 minutes at 4° C.) and placed on dry ice. […] After blood collection, the animals were then exsanguinated by sectioning of the abdominal aorta.
(§1) Statistical Analysis: One-way ANOVA with post-hoc Dunnett's statistical analysis was performed on differential cell counts obtained from lavage and blood samples. The analysis was performed in comparison to Group 2.

[5] = Mouse thioglycollate-induced peritonitis model: circulating blood cell counts; conditions: in vivo
Description: The lavage fluid was placed on wet ice pending processing for total and differential cell counts using the Advia analyzer. Following the lavage collection, a blood sample (0.7 mL) was collected from each mouse by intracardiac puncture or from the vena cava (collection time was recorded). 0.5 mL of blood was placed in an EDTA tube, transferred to clinical pathology and analyzed for differential cell counts using the Advia analyzer. 0.2 mL of blood was placed in a K2EDTA tube and processed to plasma. The plasma was collected by centrifugation (3000 rpm for 10 minutes at 4° C.) and placed on dry ice. The samples were analyzed to determine CVC plasma levels. After blood collection, the animals were then exsanguinated by sectioning of the abdominal aorta.
as §1

[6] = system: APAP-induced acute liver injury; assay: Acetaminophen (APAP)-induced acute liver injury in mice; type: in vivo, C57BL/6J mice
Description: Methods: […] […] Liver injury and immune cell phenotypes were analyzed. For mechanistic studies, monocyte-derived macrophage subsets and resident macrophages (Kupffer cells) were sorted by FACS from injured livers and subjected to array-based Nanostring gene expression analysis. […] The human counterparts of both agents are currently tested in phase II trials for different indications (diabetic nephropathy or NASH, respectively).

[7] = Tissue distribution in rodents; type: in vivo

## CCCCOCCOc1ccc(-c2ccc3c(c2)/C=C(/C(=O)Nc2ccc([S@@+]([O-])Cc4cncn4CCC)cc2)CCCN3CC(C)C)cc1 [CVC, (S)-8-[4-(2-Butoxyethoxy)phenyl]-1-isobutyl-N-(4-{[(1-propyl-1H-imidazol-5-yl)methyl]sulfinyl}phenyl)-1,2,3,4-tetrahydro-1-benzazocine-5-carboxamide]
Mouse toxicity studies
  Tolerability: well tolerated
[1]; 25 mg
  Subjects with ALT and/or AST elevations (all Grade 1): 2 subjects
[1]; 50 mg
  Subjects with ALT and/or AST elevations (all Grade 1): 2 subjects
[1]; 100 mg
  Subjects with ALT and/or AST elevations (all Grade 1): 1 subject
[1]; 150 mg
  Subjects with ALT and/or AST elevations (all Grade 1): 1 subject
[1]; 25-150 mg once daily, 10 days
  Tolerability: generally well tolerated
[1]; Study 201, all subjects
  Treatment-emergent AE: diarrhea: 16.7%
  Treatment-emergent AE: fatigue: 11.0%
  Treatment-emergent AE: headache: 14.8%
  Treatment-emergent AE: nausea: 18.5%
[1]; during the study
  Grade 2-4 elevations in ALT or AST: No Grade 2-4 elevations
HIV-1; Human immunodeficiency virus 1, 25 mg
  Emax: 54.9%
HIV-1; Human immunodeficiency virus 1, 50 mg
  Emax: 79.8%
HIV-1; Human immunodeficiency virus 1, 75 mg
  Emax: 85.9%
HIV-1; Human immunodeficiency virus 1, 150 mg
  Emax: 95.9%
HIV-1; in vivo
  Emax in the PK/PD model (HIV-1 RNA): −1.43 log10 copies/mL
[2]
  Inflammation in clinical pathology parameters or any tissue incl. liver (microscopic evaluation): No indication of inflammation
[2]; 3- and 9-month studies
  Plasma MCP-1 levels over controls: ~5 fold
[3]
  Tolerability: generally well tolerated
[4]; Group 3 (CVC BID)
  Decrease in monocytes in peritoneal lavage vs thioglycollate control (Group 2): 5.7%
  Decrease in total leukocytes in peritoneal lavage vs thioglycollate control (Group 2): 0.8%
[4]; Group 4 (CVC BID)
  Decrease in monocytes in peritoneal lavage vs thioglycollate control (Group 2): 45.2%
  Decrease in total leukocytes in peritoneal lavage vs thioglycollate control (Group 2): 22.2%
[4]; Group 5 (CVC BID)
  Decrease in monocytes in peritoneal lavage vs thioglycollate control (Group 2): 76.5%
  Decrease in total leukocytes in peritoneal lavage vs thioglycollate control (Group 2): 57.6%
[4]; Group 6 (CVC QD)
  Decrease in monocytes in peritoneal lavage vs thioglycollate control (Group 2): 26.0%
  Decrease in total leukocytes in peritoneal lavage vs thioglycollate control (Group 2): 14.2%
[4]; mouse, in vivo
  Body weights, Days 1 to 6: no notable changes in body weights
[5]
  Circulating blood cell counts: no clear changes
[6]; CC14 and APAP models
  Reduction of Ly6C+ monocyte-derived macrophages in liver: 83-84%
[6]; CC14 and APAP models, p<0.01
  Pro-inflammatory Ly6C+ monocytes in blood: significantly reduced
[6]; CVC 100 mg/kg oral
  Reduction in ALT: 75%
  Reduction in necrotic area fraction: 61%
[6]; CVC 100 mg/kg oral, 12h after APAP, vehicle 6.01%±0.66
  Ly6C+ monocyte-derived macrophages in liver (% of liver leukocytes): 0.95%±0.11
[6]; CVC 100 mg/kg oral, vehicle 27.9%±4.05
  Necrotic area fraction: 10.9%±3.50
[6]; WT mice
  Monocyte accumulation in APAP-injured livers: significantly reducing monocyte accumulation
[6]; WT mice, p<0.05 for mNOX, p<0.01 for CVC
  Protection from liver damage (ALT levels): significant protection from liver damage
[7]
  Tissue distribution: high distribution in the liver, mesenteric lymph node, and intestine
